Results reported in ChEMBL document CHEMBL1201861, “Genomics of Drug Sensitity in Cancer screening data, Wellcome Trust Sanger Institute”.
Counter-ions that a name gives are not always drawn.

Tests used:
Assay in all cases: cells
H4 = format: functional, cell-based, Homo sapiens; conditions: Homo sapiens, H4
Description: SANGER: Inhibition of human H4 cell growth in a cell viability assay.

HuP-T4 = format: functional, cell-based, Homo sapiens; conditions: Homo sapiens, HuP-T4;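 also: cell viability assay measuring how much HuP-T4 cell growth is inhibited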
Description: SANGER: Inhibition of human HuP-T4 cell growth in a cell viability assay.

DOK = format: functional, cell-based, Homo sapiens; conditions: Homo sapiens, DOK;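 also: cell viability assay read-out, values reflect inhibition of cell growth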
Description: SANGER: Inhibition of human DOK cell growth in a cell viability assay.

SNU-387 = format: functional, cell-based, Homo sapiens; conditions: Homo sapiens, SNU-387
Description: SANGER: Inhibition of human SNU-387 cell growth in a cell viability assay.

HuO-3N1 = format: functional, cell-based, Homo sapiens; conditions: Homo sapiens, HuO-3N1;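 also: cell viability readout used to measure how strongly compounds suppress proliferation of human HuO-3N1 cells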
Description: SANGER: Inhibition of human HuO-3N1 cell growth in a cell viability assay.

MDA-MB-361 = format: functional, cell-based, Homo sapiens; conditions: Homo sapiens, MDA-MB-361
BCPAP = format: functional, cell-based, Homo sapiens; conditions: Homo sapiens, BCPAP;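 also: growth inhibition of BCPAP cells, read out in a cell viability assay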
Description: SANGER: Inhibition of human BCPAP cell growth in a cell viability assay.

SK-HEP1 = format: functional, cell-based, Homo sapiens, SK-HEP-1; conditions: Homo sapiens, SK-HEP1;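 also: cell viability readout used to quantify reduction in proliferation of human SK-HEP-1 cells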
Description: SANGER: Inhibition of human SK-HEP-1 cell growth in a cell viability assay.

TCC-SUP = format: functional, cell-based, Homo sapiens; conditions: Homo sapiens, TCC-SUP;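 also: growth inhibition of TCC-SUP cells, read out with a cell viability assay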
Description: SANGER: Inhibition of human TCCSUP cell growth in a cell viability assay.

SK-MM-2 = format: functional, cell-based, Homo sapiens; conditions: Homo sapiens, SK-MM-2;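 also: growth inhibition of human SK-MM-2 cells, read out with a cell viability assay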
Description: SANGER: Inhibition of human SK-MM-2 cell growth in a cell viability assay.

MONO-MAC-6 = format: functional, cell-based, Homo sapiens; conditions: Homo sapiens, MONO-MAC-6;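 also: cell viability assay measuring growth inhibition of human MONO-MAC-6 cells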
Description: SANGER: Inhibition of human MONO-MAC-6 cell growth in a cell viability assay.

MKN-45 = format: functional, cell-based, Homo sapiens; conditions: Homo sapiens, MKN-45;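 also: growth inhibition of human MKN-45 cells, measured with a cell viability assay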
Description: SANGER: Inhibition of human MKN45 cell growth in a cell viability assay.

SK-MEL-24 = format: functional, cell-based, Homo sapiens; conditions: Homo sapiens, SK-MEL-24;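 also: growth inhibition read out by a cell viability assay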
Description: SANGER: Inhibition of human SK-MEL-24 cell growth in a cell viability assay.

LC4-1 = format: functional, cell-based, Homo sapiens; conditions: Homo sapiens, LC4-1;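 also: growth inhibition of LC4-1 cells, read out with a cell viability assay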
Description: SANGER: Inhibition of human LC4-1 cell growth in a cell viability assay.

COR-L23 = format: functional, cell-based, Homo sapiens; conditions: Homo sapiens, COR-L23;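 also: cell viability assay measuring how strongly compounds suppress growth of COR-L23 cells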
Description: SANGER: Inhibition of human COR-L23 cell growth in a cell viability assay.

UACC-893 = format: functional, cell-based, Homo sapiens; conditions: Homo sapiens, UACC-893
Description: SANGER: Inhibition of human UACC-893 cell growth in a cell viability assay.

Capan-2 = format: functional, cell-based, Homo sapiens; conditions: Homo sapiens, Capan-2;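 also: Capan-2 cell growth inhibition, read out with a viability assay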
Description: SANGER: Inhibition of human Capan-2 cell growth in a cell viability assay.

SK-OV-3 = format: functional, cell-based, Homo sapiens; conditions: Homo sapiens, SK-OV-3;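 also: growth inhibition of SK-OV-3 human cells, read out with a cell viability assay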
Description: SANGER: Inhibition of human SK-OV-3 cell growth in a cell viability assay.

NCI-H1563 = format: functional, cell-based, Homo sapiens; conditions: Homo sapiens, NCI-H1563;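 also: growth inhibition of human NCI-H1563 cells, read out with a cell viability assay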
Description: SANGER: Inhibition of human NCI-H1563 cell growth in a cell viability assay.

HMV-2 cell line = format: functional, cell-based, Homo sapiens; conditions: Homo sapiens, HMV-2;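 also: growth inhibition of HMV-II cells, read out with a cell viability assay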
Description: SANGER: Inhibition of human HMV-II cell growth in a cell viability assay.

LOUCY = format: functional, cell-based, Homo sapiens; conditions: Homo sapiens, LOUCY;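 also: growth inhibition of human LOUCY cells, read out with a cell viability assay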
Description: SANGER: Inhibition of human LOUCY cell growth in a cell viability assay.

HSC-2 = format: functional, cell-based, Homo sapiens; conditions: Homo sapiens, HSC-2;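 also: growth inhibition of human HSC-2 cells, read out by a cell viability assay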
Description: SANGER: Inhibition of human HSC-2 cell growth in a cell viability assay.

NCI-H2228 = format: functional, cell-based, Homo sapiens; conditions: Homo sapiens, NCI-H2228;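 also: growth inhibition of human NCI-H2228 cells, read out by a cell viability assay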
Description: SANGER: Inhibition of human NCI-H2228 cell growth in a cell viability assay.

C32 = format: functional, cell-based, Homo sapiens; conditions: Homo sapiens, C32;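 also: cell viability assay, with IC50 reflecting inhibition of C32 cell growth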
Description: SANGER: Inhibition of human C32 cell growth in a cell viability assay.

SIMA = format: functional, cell-based, Homo sapiens; conditions: Homo sapiens, SIMA;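 also: growth inhibition of SIMA cells, measured with a cell viability readout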
Description: SANGER: Inhibition of human SIMA cell growth in a cell viability assay.

NALM-6 = format: functional, cell-based, Homo sapiens; conditions: Homo sapiens, NALM-6;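 also: growth inhibition of NALM-6 cells, read out with a cell viability assay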
Description: SANGER: Inhibition of human NALM-6 cell growth in a cell viability assay.

J82 = format: functional, cell-based, Homo sapiens; conditions: Homo sapiens, J82;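 also: growth inhibition of J82 cells, read out with a cell viability assay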
Description: SANGER: Inhibition of human J82 cell growth in a cell viability assay.

VMRC-RCZ = format: functional, cell-based, Homo sapiens; conditions: Homo sapiens, VMRC-RCZ;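 also: growth inhibition measured with a cell viability assay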
Description: SANGER: Inhibition of human VMRC-RCZ cell growth in a cell viability assay.

MCF7 = format: functional, cell-based, Homo sapiens; conditions: Homo sapiens, MCF7;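 also: growth inhibition of human MCF7 cells, read out with a cell viability assay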
Description: SANGER: Inhibition of human MCF7 cell growth in a cell viability assay.

SW1417 = format: functional, cell-based, Homo sapiens; conditions: Homo sapiens, SW1417;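 also: growth inhibition of human SW1417 cells, read out with a cell viability assay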
Description: SANGER: Inhibition of human SW1417 cell growth in a cell viability assay.

RT-112 = format: functional, cell-based, Homo sapiens; conditions: Homo sapiens, RT-112
Description: SANGER: Inhibition of human RT-112 cell growth in a cell viability assay.

CAL-62 = format: functional, cell-based, Homo sapiens; conditions: Homo sapiens, CAL-62;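 also: growth inhibition of CAL-62 cells, read out with a cell viability assay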
Description: SANGER: Inhibition of human CAL-62 cell growth in a cell viability assay.

MEL-HO = format: functional, cell-based, Homo sapiens; conditions: Homo sapiens, MEL-HO
Description: SANGER: Inhibition of human MEL-HO cell growth in a cell viability assay.

ACHN = format: functional, cell-based, Homo sapiens; conditions: Homo sapiens, ACHN;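 also: cell viability read-out used to gauge how strongly growth of human ACHN cells is suppressed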
Description: SANGER: Inhibition of human ACHN cell growth in a cell viability assay.

CAL-148 = format: functional, cell-based, Homo sapiens; conditions: Homo sapiens, CAL-148
Description: SANGER: Inhibition of human CAL-148 cell growth in a cell viability assay.

NCI-H1703 = format: functional, cell-based, Homo sapiens; conditions: Homo sapiens, NCI-H1703;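 also: growth inhibition of NCI-H1703 cells, read out via a cell viability assay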
Description: SANGER: Inhibition of human NCI-H1703 cell growth in a cell viability assay.

8505C = format: functional, cell-based, Homo sapiens; conditions: Homo sapiens, 8505C
Description: SANGER: Inhibition of human 8505C cell growth in a cell viability assay.

HCC1569 = format: functional, cell-based, Homo sapiens; conditions: Homo sapiens, HCC1569;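 also: growth inhibition of human HCC1569 cells, read out with a cell viability assay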
Description: SANGER: Inhibition of human HCC1569 cell growth in a cell viability assay.

NUGC-3 = format: functional, cell-based, Homo sapiens; conditions: Homo sapiens, NUGC-3;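 also: growth inhibition of human NUGC-3 cells, read out with a cell viability assay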
Description: SANGER: Inhibition of human NUGC-3 cell growth in a cell viability assay.

SK-MEL3 = format: functional, cell-based, Homo sapiens, SK-MEL-3; conditions: Homo sapiens, SK-MEL3;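 also: growth inhibition of human SK-MEL-3 cells, read out with a cell viability assay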
Description: SANGER: Inhibition of human SK-MEL-3 cell growth in a cell viability assay.

TALL-1 = format: functional, cell-based, Homo sapiens; conditions: Homo sapiens, TALL-1;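 also: growth inhibition of cultured human TALL-1 cells, read out by a cell viability assay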
Description: SANGER: Inhibition of human TALL-1 cell growth in a cell viability assay.

HT-1080 = format: functional, cell-based, Homo sapiens; conditions: Homo sapiens, HT-1080
Description: SANGER: Inhibition of human HT-1080 cell growth in a cell viability assay.

Ca-Ski = format: functional, cell-based, Homo sapiens; conditions: Homo sapiens, Ca-Ski;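 also: cell viability assay measuring inhibition of Ca-Ski cell growth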
Description: SANGER: Inhibition of human Ca-Ski cell growth in a cell viability assay.

A2058 = format: functional, cell-based, Homo sapiens; conditions: Homo sapiens, A2058;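 also: reduction of A2058 cell growth, read out with a viability assay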
Description: SANGER: Inhibition of human A2058 cell growth in a cell viability assay.

NCI-H630 = format: functional, cell-based, Homo sapiens; conditions: Homo sapiens, NCI-H630;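 also: growth inhibition of NCI-H630 cells, read out with a cell viability assay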
Description: SANGER: Inhibition of human NCI-H630 cell growth in a cell viability assay.

RERF-LC-MS = format: functional, cell-based, Homo sapiens; conditions: Homo sapiens, RERF-LC-MS;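 also: growth inhibition of human RERF-LC-MS cells, read out by a cell viability assay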
Description: SANGER: Inhibition of human RERF-LC-MS cell growth in a cell viability assay.

KYSE-180 = format: functional, cell-based, Homo sapiens; conditions: Homo sapiens, KYSE-180;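 also: growth inhibition of KYSE-180 cells, read out with a cell viability assay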
Description: SANGER: Inhibition of human KYSE-180 cell growth in a cell viability assay.

N#Cc1c(O)c2c(-c3ccc(-c4ccccc4O)cc3)csc2[nH]c1=O
IC50 (H4): > 1020 nM | IC50 (HuP-T4): > 1020 nM | IC50 (DOK): > 1020 nM | IC50 (SNU-387): > 1020 nM | IC50 (HuO-3N1): > 1020 nM | IC50 (MDA-MB-361): 860 nM | IC50 (BCPAP): > 1020 nM | IC50 (SK-HEP1): > 1020 nM | IC50 (TCC-SUP): > 1020 nM | IC50 (SK-MM-2): 109 nM | IC50 (MONO-MAC-6): 114 nM | IC50 (MKN-45): > 1020 nM | IC50 (SK-MEL-24): > 1020 nM | IC50 (LC4-1): 563 nM | IC50 (COR-L23): > 1020 nM | IC50 (UACC-893): > 1020 nM | IC50 (Capan-2): > 1020 nM | IC50 (SK-OV-3): > 1020 nM | IC50 (NCI-H1563): > 1020 nM | IC50 (HMV-2 cell line): > 1020 nM | IC50 (LOUCY): 96.4 nM | IC50 (HSC-2): > 1020 nM | IC50 (NCI-H2228): > 1020 nM | IC50 (C32): > 1020 nM | IC50 (SIMA): > 1020 nM | IC50 (NALM-6): 31.7 nM | IC50 (J82): > 1020 nM | IC50 (VMRC-RCZ): > 1020 nM | IC50 (MCF7): > 1020 nM | IC50 (SW1417): > 1020 nM | IC50 (RT-112): > 1020 nM | IC50 (CAL-62): > 1020 nM | IC50 (MEL-HO): > 1020 nM | IC50 (ACHN): > 1020 nM | IC50 (CAL-148): 223 nM | IC50 (NCI-H1703): > 1020 nM | IC50 (8505C): > 1020 nM | IC50 (HCC1569): > 1020 nM | IC50 (NUGC-3): > 1020 nM | IC50 (SK-MEL3): > 1020 nM | IC50 (TALL-1): > 1020 nM | IC50 (HT-1080): > 1020 nM | IC50 (Ca-Ski): > 1020 nM | IC50 (A2058): > 1020 nM | IC50 (NCI-H630): > 1020 nM | IC50 (RERF-LC-MS): > 1020 nM | IC50 (KYSE-180): > 1020 nM

COC1=CC(c2cc3ccccc3[nH]2)=N/C1=C\c1[nH]c(C)cc1C [OBATOCLAX MESYLATE]
IC50 (H4): 1150 nM | IC50 (HuP-T4): 41.2 nM | IC50 (DOK): 848 nM | IC50 (SNU-387): 903 nM | IC50 (HuO-3N1): 401 nM | IC50 (MDA-MB-361): 998 nM | IC50 (BCPAP): 58.9 nM | IC50 (SK-HEP1): 196 nM | IC50 (TCC-SUP): 1250 nM | IC50 (SK-MM-2): 577 nM | IC50 (MONO-MAC-6): 438 nM | IC50 (MKN-45): 1990 nM | IC50 (SK-MEL-24): 913 nM | IC50 (LC4-1): 514 nM | IC50 (COR-L23): 61.3 nM | IC50 (UACC-893): 2860 nM | IC50 (Capan-2): 666 nM | IC50 (SK-OV-3): 524 nM | IC50 (NCI-H1563): > 16000 nM | IC50 (HMV-2 cell line): 52.4 nM | IC50 (LOUCY): < 62.5 nM | IC50 (HSC-2): 24.7 nM | IC50 (NCI-H2228): 893 nM | IC50 (C32): 452 nM | IC50 (SIMA): 494 nM | IC50 (NALM-6): < 62.5 nM | IC50 (J82): 109 nM | IC50 (VMRC-RCZ): 403 nM | IC50 (MCF7): < 62.5 nM | IC50 (SW1417): < 62.5 nM | IC50 (RT-112): 666 nM | IC50 (CAL-62): 26 nM | IC50 (MEL-HO): 23.5 nM | IC50 (ACHN): 132 nM | IC50 (CAL-148): 1040 nM | IC50 (NCI-H1703): 594 nM | IC50 (8505C): 30.4 nM | IC50 (HCC1569): 18 nM | IC50 (NUGC-3): 30.5 nM | IC50 (SK-MEL3): < 62.5 nM | IC50 (TALL-1): > 16000 nM | IC50 (HT-1080): 511 nM | IC50 (Ca-Ski): 405 nM | IC50 (A2058): 107 nM | IC50 (RERF-LC-MS): 1060 nM | IC50 (KYSE-180): 61.4 nM
